From patent US8148391B2 (Cephalon, Inc., priority 2006, dated 2012)

Tests used:
[1] = target: T1, baculovirus-expressed ALK (Homo sapiens, UniProt Q9UM73); assay: ALK Kinase Assay (ELISA-type, time-resolved fluorescence); type: biochemical; details: 1 μM ATP (Km level), 30 ng/ml ALK, 37° C., 15 minutes; read-out: ALK Activity (ALK kinase inhibition, IC50 class)
T1 construct: host or cells: baculovirus expression system
How it was run: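 Plates coated with phospholipase C-γ substrate (10 μg/mL in TBS); reaction started with 30 ng/ml ALK and run 15 min at 37° C. Phosphorylated substrate detected with Eu-N1-labeled PT66 antibody. IC50 from sigmoidal variable-slope fit of percent inhibition vs log concentration.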

[2] = target: T2, c-Met (cytoplasmic domain) (Homo sapiens, UniProt P08581); assay: c-Met Kinase Assay (same methods as for ALK, with modifications); type: biochemical; details: 1 μM ATP (Km level), 10 ng/mL c-Met; read-out: cMet Activity (c-Met kinase inhibition, IC50 class)
T2 construct: 10 ng/mL c-Met (cytoplasmic domain, Invitrogen Corporation #PV3143); purchased Invitrogen Corporation PV3143
T2 sequence (P08581 956-1390 limits assumed): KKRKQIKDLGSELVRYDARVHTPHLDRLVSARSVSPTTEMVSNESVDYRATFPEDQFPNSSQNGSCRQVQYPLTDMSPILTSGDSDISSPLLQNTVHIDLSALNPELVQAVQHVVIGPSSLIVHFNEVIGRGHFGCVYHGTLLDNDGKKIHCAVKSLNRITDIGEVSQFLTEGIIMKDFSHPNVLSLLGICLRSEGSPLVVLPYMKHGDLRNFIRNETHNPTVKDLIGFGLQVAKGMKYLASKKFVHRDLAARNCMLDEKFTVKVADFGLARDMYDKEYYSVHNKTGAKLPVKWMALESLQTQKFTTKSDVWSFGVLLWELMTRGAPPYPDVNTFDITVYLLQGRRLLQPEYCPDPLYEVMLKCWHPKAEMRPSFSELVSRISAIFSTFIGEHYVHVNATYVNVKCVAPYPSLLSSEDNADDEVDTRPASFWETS
How it was run: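 Europium-labeled PT66 antibody (Eu-N1) detects substrate phosphorylation on wells coated with phospholipase C-γ at 10 μg/mL. The kinase, the cytoplasmic domain of c-Met at 10 ng/mL, starts the reaction, which proceeds 15 minutes at 37° C.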

T1 sequence (Q9UM73 19-1620): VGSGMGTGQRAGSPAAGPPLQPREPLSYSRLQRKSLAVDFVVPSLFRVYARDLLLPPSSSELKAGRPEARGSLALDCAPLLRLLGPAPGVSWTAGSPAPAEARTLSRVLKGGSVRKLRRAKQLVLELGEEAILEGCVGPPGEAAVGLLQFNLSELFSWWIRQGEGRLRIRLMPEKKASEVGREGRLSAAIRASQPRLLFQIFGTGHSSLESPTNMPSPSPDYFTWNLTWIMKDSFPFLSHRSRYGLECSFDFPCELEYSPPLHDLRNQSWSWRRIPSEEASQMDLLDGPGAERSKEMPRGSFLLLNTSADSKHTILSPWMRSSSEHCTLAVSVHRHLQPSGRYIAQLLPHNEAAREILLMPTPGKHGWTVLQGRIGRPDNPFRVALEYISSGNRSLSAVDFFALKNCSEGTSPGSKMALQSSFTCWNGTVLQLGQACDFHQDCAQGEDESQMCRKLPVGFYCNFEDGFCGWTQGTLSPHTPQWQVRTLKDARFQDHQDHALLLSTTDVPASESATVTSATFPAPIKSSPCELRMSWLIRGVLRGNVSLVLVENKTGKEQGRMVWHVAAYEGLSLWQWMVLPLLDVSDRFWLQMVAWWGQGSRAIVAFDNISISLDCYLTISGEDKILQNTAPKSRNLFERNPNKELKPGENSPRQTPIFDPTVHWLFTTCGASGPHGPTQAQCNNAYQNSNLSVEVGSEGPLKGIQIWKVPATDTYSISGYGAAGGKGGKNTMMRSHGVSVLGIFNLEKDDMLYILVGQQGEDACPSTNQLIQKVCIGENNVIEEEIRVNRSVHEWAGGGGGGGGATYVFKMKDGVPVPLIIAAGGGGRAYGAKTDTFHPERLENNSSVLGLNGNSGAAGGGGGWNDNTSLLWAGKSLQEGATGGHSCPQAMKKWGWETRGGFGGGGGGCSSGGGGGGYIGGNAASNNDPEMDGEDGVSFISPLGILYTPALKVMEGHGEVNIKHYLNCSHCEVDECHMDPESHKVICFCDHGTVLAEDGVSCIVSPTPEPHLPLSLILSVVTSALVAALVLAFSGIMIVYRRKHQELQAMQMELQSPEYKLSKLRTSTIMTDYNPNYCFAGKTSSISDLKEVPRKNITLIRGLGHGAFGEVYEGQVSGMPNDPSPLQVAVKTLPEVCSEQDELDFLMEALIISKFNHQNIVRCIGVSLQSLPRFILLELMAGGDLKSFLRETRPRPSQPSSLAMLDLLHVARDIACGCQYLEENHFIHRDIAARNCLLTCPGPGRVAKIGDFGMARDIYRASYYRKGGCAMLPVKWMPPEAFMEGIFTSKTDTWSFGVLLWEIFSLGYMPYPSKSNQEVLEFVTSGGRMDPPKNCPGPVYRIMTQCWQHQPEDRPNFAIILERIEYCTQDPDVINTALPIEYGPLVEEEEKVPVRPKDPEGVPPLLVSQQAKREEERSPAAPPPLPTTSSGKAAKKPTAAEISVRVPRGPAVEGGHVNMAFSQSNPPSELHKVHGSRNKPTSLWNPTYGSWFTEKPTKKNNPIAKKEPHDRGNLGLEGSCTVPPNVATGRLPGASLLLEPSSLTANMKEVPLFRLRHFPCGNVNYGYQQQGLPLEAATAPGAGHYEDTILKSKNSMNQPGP

Row | Compound | IC50 [1] | IC50 [2]
1 | COc1cc2c(cc1Nc1ncc(Cl)c(Nc3ccccc3OC)n1)CCN(C(=O)CN(C)C)CC2 [Example 1131, 1-{7-[5-Chloro-4-(2-methoxy-phenylamino)-pyrimidin-2-ylamino]-8-methoxy-1,2,4,5-tetrahydro-benzo[d]azepin-3-yl}-2-dimethylamino-ethanone] | < 0.1 µM | > 10 µM
2 | COc1cc2c(cc1Nc1ncc(Cl)c(Nc3ccccc3OC)n1)CCN(CCS(C)(=O)=O)CC2 [Example 1132, 5-Chloro-N*2*-[3-(2-methanesulfonyl-ethyl)-8-methoxy-2,3,4,5-tetrahydro-1H-benzo[d]azepin-7-yl]-N*4*-(2-methoxy-phenyl)-pyrimidine-2,4-diamine] | < 0.1 µM | > 10 µM
3 | CCN1CCc2ccc(OC)c(Nc3ncc(Cl)c(Nc4ccc(N5CCOCC5)cc4OC)n3)c2CC1=O [Example 1133, 9-[5-Chloro-4-(2-methoxy-4-morpholin-4-yl-phenylamino)-pyrimidin-2-ylamino]-3-ethyl-8-methoxy-1,3,4,5-tetrahydro-benzo[d]azepin-2-one] | 1 to 10 µM | > 10 µM
4 | CCNC(=O)c1ccccc1Nc1nc(Nc2c(OC)ccc3c2CC(=O)N(CC)CC3)ncc1Cl [Example 1134, 2-[5-Chloro-2-(3-ethyl-7-methoxy-4-oxo-2,3,4,5-tetrahydro-1H-benzo[d]azepin-6-ylamino)-pyrimidin-4-ylamino]-N-ethyl-benzamide] | > 10 µM | > 10 µM
5 | CNC(=O)CN1CCc2cc(Nc3ncc(Cl)c(Nc4ccccc4OC)n3)c(OC)cc2CC1 [Example 1135, 2-{7-[5-Chloro-4-(2-methoxy-phenylamino)-pyrimidin-2-ylamino]-8-methoxy-1,2,4,5-tetrahydro-benzo[d]azepin-3-yl}-N-methyl-acetamide] | < 0.1 µM | > 10 µM
6 | COc1cc2c(cc1Nc1ncc(Cl)c(Nc3cc(C(N)=O)ccc3OC)n1)CCN(CC(=O)N(C)C)CC2 [Example 1136, 3-[5-Chloro-2-(3-dimethylcarbamoylmethyl-8-methoxy-2,3,4,5-tetrahydro-1H-benzo[d]azepin-7-ylamino)-pyrimidin-4-ylamino]-4-methoxy-benzamide] | 0.1 to 1 µM | 1 to 10 µM
7 | COc1cc2c(cc1Nc1ncc(Cl)c(Nc3cc(C(N)=O)ccc3OC)n1)CCN(CCS(C)(=O)=O)CC2 [Example 1137, 3-{5-Chloro-2-[3-(2-methanesulfonyl-ethyl)-8-methoxy-2,3,4,5-tetrahydro-1H-benzo[d]azepin-7-ylamino]-pyrimidin-4-ylamino}-4-methoxy-benzamide] | 0.1 to 1 µM | > 10 µM
8 | CNC(=O)CN1CCc2cc(Nc3ncc(Cl)c(Nc4cc(C(N)=O)ccc4OC)n3)c(OC)cc2CC1 [Example 1138, 3-[5-Chloro-2-(8-methoxy-3-methylcarbamoylmethyl-2,3,4,5-tetrahydro-1H-benzo[d]azepin-7-ylamino)-pyrimidin-4-ylamino]-4-methoxy-benzamide] | 0.1 to 1 µM | > 10 µM
9 | COc1cc2c(cc1Nc1ncc(Cl)c(Nc3cc(C(N)=O)ccc3OC)n1)CCN(C(=O)CN(C)C)CC2 [Example 1139, 3-{5-Chloro-2-[3-(2-dimethylamino-acetyl)-8-methoxy-2,3,4,5-tetrahydro-1H-benzo[d]azepin-7-ylamino]-pyrimidin-4-ylamino}-4-methoxy-benzamide] | 1 to 10 µM | > 10 µM
10 | COCCN1CCc2cc(Nc3ncc(Cl)c(Nc4cc(C(N)=O)ccc4OC)n3)c(OC)cc2CC1 [Example 1140, 3-{5-Chloro-2-[8-methoxy-3-(2-methoxy-ethyl)-2,3,4,5-tetrahydro-1H-benzo[d]azepin-7-ylamino]-pyrimidin-4-ylamino}-4-methoxy-benzamide] | 1 to 10 µM | > 10 µM
11 | COc1cc2c(cc1Nc1ncc(Cl)c(Nc3ccccc3S(=O)(=O)N(C)C)n1)CCN(CC(=O)N(C)C)CC2 [Example 1141, 2-{7-[5-Chloro-4-(2-dimethylsulfamoyl-phenylamino)-pyrimidin-2-ylamino]-8-methoxy-1,2,4,5-tetrahydro-benzo[d]azepin-3-yl}-N,N-dimethyl-acetamide] | < 0.1 µM | 1 to 10 µM
12 | COc1cc2c(cc1Nc1ncc(Cl)c(Nc3ccccc3S(C)(=O)=O)n1)CCN(CC(=O)N(C)C)CC2 [Example 1142, 2-{7-[5-Chloro-4-(2-methanesulfonyl-phenylamino)-pyrimidin-2-ylamino]-8-methoxy-1,2,4,5-tetrahydro-benzo[d]azepin-3-yl}-N,N-dimethyl-acetamide] | < 0.1 µM | 1 to 10 µM
13 | COc1cc2c(cc1Nc1ncc(Cl)c(Nc3ccccc3S(C)(=O)=O)n1)CCN(CC(N)=O)CC2 [Example 1143, 2-{7-[5-Chloro-4-(2-methanesulfonyl-phenylamino)-pyrimidin-2-ylamino]-8-methoxy-1,2,4,5-tetrahydro-benzo[d]azepin-3-yl}-acetamide] | < 0.1 µM | > 10 µM
14 | CCOc1ccccc1Nc1nc(Nc2cc3c(cc2OC)CCN(CC(=O)N(C)C)CC3)ncc1Cl [Example 1144, 2-{7-[5-Chloro-4-(2-ethoxy-phenylamino)-pyrimidin-2-ylamino]-8-methoxy-1,2,4,5-tetrahydro-benzo[d]azepin-3-yl}-N,N-dimethyl-acetamide] | < 0.1 µM | > 10 µM
15 | COc1cc2c(cc1Nc1ncc(Cl)c(Nc3cccc(N4CCOCC4)c3)n1)CCN(CC(=O)N(C)C)CC2 [Example 1145, 2-{7-[5-Chloro-4-(3-morpholin-4-yl-phenylamino)-pyrimidin-2-ylamino]-8-methoxy-1,2,4,5-tetrahydro-benzo[d]azepin-3-yl}-N,N-dimethyl-acetamide] | < 0.1 µM | > 10 µM
16 | COc1cc2c(cc1Nc1ncc(Cl)c(Nc3ccccc3OCC#N)n1)CCN(CC(=O)N(C)C)CC2 [Example 1147, 2-{7-[5-Chloro-4-(2-cyanomethoxy-phenylamino)-pyrimidin-2-ylamino]-8-methoxy-1,2,4,5-tetrahydro-benzo[d]azepin-3-yl}-N,N-dimethyl-acetamide] | < 0.1 µM | > 10 µM
17 | COc1cc2c(cc1Nc1ncc(Cl)c(Nc3ccccc3S(C)(=O)=O)n1)CCN(CCS(C)(=O)=O)CC2 [Example 1148, 5-Chloro-N*2*-[3-(2-methanesulfonyl-ethyl)-8-methoxy-2,3,4,5-tetrahydro-1H-benzo[d]azepin-7-yl]-N*4*-(2-methanesulfonyl-phenyl)-pyrimidine-2,4-diamine] | < 0.1 µM | 1 to 10 µM
18 | COc1cc2c(cc1Nc1ncc(Cl)c(Nc3cc(C#N)ccc3OC)n1)CCN(CC(=O)N(C)C)CC2 [Example 1149, 2-{7-[5-Chloro-4-(5-cyano-2-methoxy-phenylamino)-pyrimidin-2-ylamino]-8-methoxy-1,2,4,5-tetrahydro-benzo[d]azepin-3-yl}-N,N-dimethyl-acetamide] | < 0.1 µM | 1 to 10 µM
19 | COc1cc2c(cc1Nc1ncc(Cl)c(Nc3ccccc3S(=O)(=O)C(C)C)n1)CCN(CC(=O)N(C)C)CC2 [Example 1151, 2-(7-{5-Chloro-4-[2-(propane-2-sulfonyl)-phenylamino]-pyrimidin-2-ylamino}-8-methoxy-1,2,4,5-tetrahydro-benzo[d]azepin-3-yl)-N,N-dimethyl-acetamide] | < 0.1 µM | 1 to 10 µM
20 | COc1cc2c(cc1Nc1ncc(Cl)c(Nc3ccccc3S(=O)(=O)N(C)C)n1)CCN(CCS(C)(=O)=O)CC2 [Example 1152, 2-{5-Chloro-2-[3-(2-methanesulfonyl-ethyl)-8-methoxy-2,3,4,5-tetrahydro-1H-benzo[d]azepin-7-ylamino]-pyrimidin-4-ylamino}-N,N-dimethyl-benzenesulfonamide] | < 0.1 µM | 1 to 10 µM
21 | COCC(COC)N1CCc2cc(Nc3ncc(Cl)c(Nc4ccc(C(N)=O)cc4OC)n3)c(OC)cc2CC1 [Example 1153, 4-{5-Chloro-2-[8-methoxy-3-(2-methoxy-1-methoxymethyl-ethyl)-2,3,4,5-tetrahydro-1H-benzo[d]azepin-7-ylamino]-pyrimidin-4-ylamino}-3-methoxy-benzamide] | < 0.1 µM | > 10 µM
22 | COc1cc2c(cc1Nc1ncc(Cl)c(Nc3cc(C#N)ccc3OC)n1)CCN(CC(N)=O)CC2 [Example 1154, 2-{7-[5-Chloro-4-(5-cyano-2-methoxy-phenylamino)-pyrimidin-2-ylamino]-8-methoxy-1,2,4,5-tetrahydro-benzo[d]azepin-3-yl}-acetamide] | < 0.1 µM | > 10 µM
23 | COc1cc2c(cc1Nc1ncc(Cl)c(Nc3ccc(N4CCOCC4)cc3OC)n1)CCN(CC(=O)N1CCCC1)CC2 [Example 1155, 2-{7-[5-Chloro-4-(2-methoxy-4-morpholin-4-yl-phenylamino)-pyrimidin-2-ylamino]-8-methoxy-1,2,4,5-tetrahydro-benzo[d]azepin-3-yl}-1-pyrrolidin-1-yl-ethanone] | < 0.1 µM | > 10 µM
24 | COCCN1CCc2cc(Nc3ncc(Cl)c(Nc4ccc(C(N)=O)cc4OC)n3)c(OC)cc2CC1 [Example 1156, 4-{5-Chloro-2-[8-methoxy-3-(2-methoxy-ethyl)-2,3,4,5-tetrahydro-1H-benzo[d]azepin-7-ylamino]-pyrimidin-4-ylamino}-3-methoxy-benzamide] | < 0.1 µM | > 10 µM
